Data reported in US20180002320A1, “USE OF MACROCYCLIC PICOLINAMIDES AS FUNGICIDES” (DOW AGROSCIENCES LLC, priority 2014, published 2018).
Where two headings read alike, the source gives them in different places.

Key:
[1] = test system: Zymoseptoria tritici; experiment: Leaf Blotch of Wheat (SEPTTR) fungicidal activity; format: in vivo; details: Low Volume (121.5 g/H)
Experimental: Technical grades of materials were dissolved in acetone, which were then mixed with nine volumes of H2O containing 110 ppm Triton X-100. The fungicide solutions were applied onto wheat seedlings using an automated booth sprayer to run-off. All sprayed plants were allowed to air dry prior to further handling. All fungicides were evaluated using the aforementioned method for their activity vs. all target diseases, unless stated otherwise. Wheat leaf blotch and brown rust activity were also evaluated using track spray applications, in which case the fungicides were formulated as EC formulations, containing 0.1% Trycol 5941 in the spray solutions. Wheat plants (variety Yuma) were grown from seed in a greenhouse in 50% mineral soil/50% soil-less Metro mix until the first leaf was fully emerged, with 7-10 seedlings per pot. These plants were inoculated with an aqueous spore suspension of Zymoseptoria tritici either prior to or after fungicide treatments. After inoculation the plants were kept in 100% relative humidity (one day in a dark dew chamber followed by two to three days in a lighted dew chamber at 20° C.) to permit spores to germinate and infect the leaf. The plants were then transferred to a greenhouse set at 20° C. for disease to develop. When disease symptoms were fully expressed on the 1st leaves of untreated plants, infection levels were assessed on a scale of 0 to 100 percent disease severity. Percent disease control was calculated using the ratio of disease severity on treated plants relative to untreated plants.

[2] = test system: Puccinia triticina; experiment: Wheat Brown Rust (PUCCRT) fungicidal activity; format: in vivo; details: Low Volume (121.5 g/H)
Experimental: Technical grades of materials were dissolved in acetone, which were then mixed with nine volumes of H2O containing 110 ppm Triton X-100. The fungicide solutions were applied onto wheat seedlings using an automated booth sprayer to run-off. All sprayed plants were allowed to air dry prior to further handling. All fungicides were evaluated using the aforementioned method for their activity vs. all target diseases, unless stated otherwise. Wheat leaf blotch and brown rust activity were also evaluated using track spray applications, in which case the fungicides were formulated as EC formulations, containing 0.1% Trycol 5941 in the spray solutions. Wheat plants (variety Yuma) were grown from seed in a greenhouse in 50% mineral soil/50% soil-less Metro mix until the first leaf was fully emerged, with 7-10 seedlings per pot. These plants were inoculated with an aqueous spore suspension of Puccinia triticina either prior to or after fungicide treatments. After inoculation the plants were kept in a dark dew room at 22° C. with 100% relative humidity overnight to permit spores to germinate and infect the leaf. The plants were then transferred to a greenhouse set at 24° C. for disease to develop. Fungicide formulation, application and disease assessment followed the procedures as described in the Example A.

[3] = 24 h, 1 Day Protectant, read-out: SEPTTR 1DP disease control
[4] = 72 h, 3 Day Curative, read-out: SEPTTR 3DC disease control
[5] = 24 h, 1 Day Protectant, read-out: PUCCRT 1DP disease control
[6] = 72 h, 3 Day Curative, read-out: PUCCRT 3DC disease control

Row | SMILES | pest or weed control at 121.5 g/ha [1, 3] [%] | pest or weed control at 121.5 g/ha [1, 4] [%] | pest or weed control at 121.5 g/ha [2, 5] [%] | pest or weed control at 121.5 g/ha [2, 6] [%]
1 | CCCO[C@H]1COCC[C@H](NC(=O)c2nccc(OC)c2OCOC(C)=O)C(=O)O[C@@H](C)[C@@H]1Oc1ccccc1 [Compound 41] | > 80 | > 80 | > 80 | > 80
2 | COc1ccnc(C(=O)N[C@H]2CCOC[C@H](Oc3ccccc3)[C@@H](Oc3ccccc3)[C@H](C)OC2=O)c1OC(C)=O [Compound 47] | > 80 | > 80 | > 80 | > 80
3 | COc1ccnc(C(=O)N[C@H]2CCCC[C@H](CC3CCCC3)[C@@H](OC(=O)C(C)C)[C@H](C)OC2=O)c1OCOC(C)=O [Compound 54] | > 80 |  | > 80 | < 80
4 | COc1ccnc(C(=O)N[C@H]2CCCC[C@H](OC)[C@@H](OC)[C@H](C)OC2=O)c1OCOC(C)=O [Compound 22] |  | < 80 | > 80 | > 80
5 | COc1ccnc(C(=O)N[C@H]2CCCC[C@H](OC)[C@@H](OC)[C@H](C)OC2=O)c1OC(C)=O [Compound 27] | < 80 |  | > 80 | > 80
6 | CC[C@H]1CCOC[C@H](NC(=O)c2nccc(OC)c2OCOC(C)=O)C(=O)O[C@@H](C)[C@@H]1OC(=O)C1CC1 [Compound 79] | > 80 |  | > 80 | > 80
7 | COc1ccnc(C(=O)N[C@H]2COCC[C@H](OCc3ccccc3)[C@@H](OCc3ccccc3)[C@H](C)OC2=O)c1OCOC(C)=O [Compound 1] | > 80 | < 80 | > 80 | 
8 | COc1ccnc(C(=O)N[C@H]2CCCC[C@H](OCc3ccccc3)[C@@H](OCc3ccccc3)[C@H](C)OC2=O)c1OC(C)=O [Compound 9] | > 80 | > 80 | > 80 | < 80
9 | COc1ccnc(C(=O)N[C@H]2CCCC[C@H](OC)[C@@H](Oc3ccccc3)[C@H](C)OC2=O)c1OCOC(C)=O [Compound 11] | > 80 | > 80 | > 80 | > 80
10 | CCCCO[C@H]1CCOC[C@H](NC(=O)c2nccc(OC)c2OCOC(C)=O)C(=O)O[C@@H](C)[C@@H]1OC(=O)c1ccccc1 [Compound 4] | < 80 |  | > 80 | > 80
11 | CCCO[C@@H]1[C@@H](CC2CCCC2)CCCC[C@H](NC(=O)c2nccc(OC)c2OCOC(C)=O)C(=O)O[C@H]1C [Compound 57] | < 80 |  | > 80 | < 80
12 | CC[C@H]1CCOC[C@H](NC(=O)c2nccc(OC)c2OCOC(C)=O)C(=O)O[C@@H](C)[C@@H]1OCC(C)C [Compound 70] | > 80 | < 80 | > 80 | > 80
13 | CCC[C@H]1CCCC[C@H](NC(=O)c2nccc(OC)c2OCOC(C)=O)C(=O)O[C@@H](C)[C@@H]1OCC(C)C [Cmpd 30, ((2-(((3S,8S,9R,10S)-9-isobutoxy-10-methyl-2-oxo-8-propyloxecan-3-yl)carbamoyl)-4-methoxypyridin-3-yl)oxy)methyl acetate] | < 80 | < 80 | > 80 | < 80
14 | CCOCC(=O)OCOc1c(OC)ccnc1C(=O)N[C@H]1CCCC[C@H](CC2CCCC2)[C@@H](Oc2ccccc2)[C@H](C)OC1=O [Compound 51, ((2-(((3S,8R,9R,10S)-8-(cyclopentylmethyl)-10-methyl-2-oxo-9-phenoxyoxecan-3-yl)carbamoyl)-4-methoxypyridin-3-yl)oxy)methyl 2-ethoxyacetate] | > 80 |  | > 80 | < 80
15 | CC(=O)OCOc1cccnc1C(=O)N[C@H]1CCCC[C@H](CC2CCCC2)[C@@H](Oc2ccccc2)[C@H](C)OC1=O [Compound 49] | < 80 |  | > 80 | < 80
16 | COc1ccnc(C(=O)N[C@H]2COCC[C@H](Cc3ccc(F)cc3)[C@@H](OCC3CC3)[C@H](C)OC2=O)c1OCOC(C)=O [Compound 74] | > 80 | < 80 | > 80 | > 80
17 | CCCO[C@H]1CCCC[C@H](NC(=O)c2nccc(OC)c2OC(C)=O)C(=O)O[C@@H](C)[C@@H]1Oc1ccccc1 [Compound 26] | > 80 | > 80 | > 80 | > 80
18 | COc1ccnc(C(=O)N[C@H]2CCCC[C@H](OCC(C)C)[C@@H](OCC(C)C)[C@H](C)OC2=O)c1OCOC(C)=O [Compound 14] | > 80 | < 80 | > 80 | < 80
19 | COc1ccnc(C(=O)N[C@H]2COCC[C@H](Cc3ccc(F)cc3)[C@@H](OCC3CC3)[C@H](C)OC2=O)c1OC(C)=O [Compound 77] | > 80 | < 80 | > 80 | > 80
20 | CCCO[C@H]1CCCC[C@H](NC(=O)c2nccc(OC)c2OCOC(C)=O)C(=O)O[C@@H](C)[C@@H]1Oc1ccccc1 [Compound 23] | > 80 | > 80 | > 80 | > 80
21 | COc1ccnc(C(=O)N[C@H]2COCC[C@H](Cc3ccc(F)cc3)[C@@H](Oc3ccccc3)[C@H](C)OC2=O)c1OC(C)=O [Compound 71] | > 80 | > 80 | > 80 | > 80
22 | CCC[C@H]1CCCC[C@H](NC(=O)c2nccc(OC)c2OCOC(C)=O)C(=O)O[C@@H](C)[C@@H]1OC(=O)C(C)C [Compound 31] | < 80 | < 80 | > 80 | < 80
23 | CCCO[C@H]1[C@H](C)OC(=O)[C@@H](NC(=O)c2nccc(OC)c2OCOC(C)=O)CCOC[C@@H]1Oc1ccccc1 [Compound 42] | < 80 | < 80 | > 80 | < 80
24 | COc1ccnc(C(=O)N[C@H]2CCCC[C@H](CC3CCCC3)[C@@H](OC(=O)C(C)C)[C@H](C)OC2=O)c1OC(C)=O [Compound 56, (2S,3R,4R,9S)-9-(3-acetoxy-4-methoxypicolinamido)-4-(cyclopentylmethyl)-2-methyl-10-oxooxecan-3-yl isobutyrate] | > 80 | < 80 | > 80 | < 80
25 | COc1ccnc(C(=O)N[C@H]2CCOC[C@H](Cc3ccccc3)[C@@H](OCC(C)C)[C@H](C)OC2=O)c1OCOC(C)=O [Compound 16] | < 80 | < 80 | > 80 | < 80
26 | CCCCCO[C@H]1[C@H](C)OC(=O)[C@@H](NC(=O)c2nccc(OC)c2OCOC(C)=O)CCCC[C@@H]1OC(=O)c1ccccc1 [Compound 15] | > 80 | > 80 | > 80 | < 80
27 | COc1ccc(C[C@H]2CCOC[C@H](NC(=O)c3nccc(OC)c3OCOC(C)=O)C(=O)O[C@@H](C)[C@@H]2Oc2ccccc2)cc1 [Compound 66] | > 80 | > 80 | > 80 | < 80
28 | COc1ccnc(C(=O)N[C@H]2CCOC[C@H](OC)[C@@H](Oc3ccccc3)[C@H](C)OC2=O)c1OCOC(C)=O [Compound 40] | > 80 | > 80 | > 80 | > 80
